Assay results published in patent publication US7285564B2, “Substituted 4-amino-1-(pyridylmethyl)piperidine and related compounds” (Theravance, Inc., priority 2002, dated 2007).

Test system: volume-induced bladder contractions
Assay: In vivo rat bladder assay
Conditions: intravenous; anesthetized female Sprague-Dawley rats; normalized to atropine response
Description: Female Sprague-Dawley rats (Harlan, Indianapolis, Ind.) weighing 200 to 300 g were anesthetized with urethane (1.5 g/kg, s.c., Sigma, St. Louis, Mo.), with a supplement of 0.25 g/kg, s.c. urethane as needed. Urethane was administered at a concentration of 0.25 g/mL.
Rats were prepared for surgery by shaving the neck and abdomen and cleansing with ethanol wipes. First, an incision was made on the ventral surface. An intravenous catheter was placed by isolating and ligating the femoral vein. […]
Thereafter, an intravenous dose of the test compound was administered and changes in VIBCAmp were recorded for 15 minutes. Atropine (0.1 mg/kg) was then administered intravenously (1 mL/kg) as a positive control and VIBCAmp and data was recorded for an additional 15 minutes. […]
Alternatively, after the vehicle, increasing cumulative intravenous doses of the test compound were administered at 15 minute intervals (1 mL/kg) and changes in VIBCAmp were recorded for 15 minutes. […]
The average VIBCAmp during the 5-15 minute period after test compound and atropine was determined and subtracted from the average VIBCAmp during the 5-15 minute post-vehicle period to obtain the test compound or atropine-induced change in VIBCAmp. […]

SMILES: COc1ccncc1CN1CCC(N(CCCCCCCN2CC[C@@H](C(C(N)=O)(c3ccccc3)c3ccccc3)C2)C(C)C)CC1 [Example 1]
- ID50 (volume-induced bladder contraction amplitude): less than or equal to 0.1 mg/kg
